Consider one compound from patent US20020119438A1, “METHOD FOR D[…] CELL COUNT” (priority 1995, published 2002).

≈ marks a conversion by molar mass, not a printed value.

Experiment [1] relates to MOLT-4 cells. In words: Cytotoxicity assessment by method of the present invention (PO-PRO-1 Iodide fluorescence before/after Triton X-100). It counts as cell-based, human. The note with it: two days incubation, from viable cell numbers.
The test system of experiment [2] is MOLT-4 cells. Description: Cytotoxicity assessment by MTT assay system. It is filed as cell-based, human. The note with it: two days incubation.

Take `CO[C@@]12[C@H](COC(N)=O)C3=C(C(=O)C(C)=C(N)C3=O)N1C[C@@H]1N[C@@H]12` [Mitomycin C]: the IC50 came out at 2.2 µg/mL (≈ 6.58 µM) in experiment [1] and 5.5 µg/mL (≈ 16.5 µM) in experiment [2].
